Holding throughout (format): in vivo
Experiment [1] relates to redroot pigweed (Amaranthus retroflexus). Kind of experiment: Test G Post-Emergence Protocol. The conditions noted are these: Amaranthus retroflexus, post-emergence, 312 h. Here is the method:
(§1) Seeds of corn (Zea mays), giant foxtail (Setaria faberi), barnyardgrass (Echinochloa crus-galli), ivy-leaved morning glory (Ipomoea hederacea), redroot pigweed (Amaranthus retroflexus) and velvetleaf (Abutilon theophrasti) were sown in standard soil in pots. After cultivation for 8 days under controlled conditions in a glasshouse (at 24/16° C., day/night; 14 hours light; 65% humidity), the plants were sprayed with an aqueous spray solution derived from the formulation of the technical active ingredient in acetone/water (50:50) solution containing 0.5% Tween 20 (polyoxyethylene sorbitan monolaurate, CAS RN 9005-64-5) to give a final dose of 15.625, 62.5 or 250 g/ha of test compound.
(§2) The test plants were then grown on under controlled conditions in a glasshouse (at 24/16° C., day/night; 14 hours light; 65% humidity) and watered twice daily. After 13 days the test was evaluated (100=total damage to plant; 0=no damage to plant). A dash (-) means no test result.

The test system of experiment [2] is giant foxtail (Setaria faberi). Kind of experiment: Test G Post-Emergence Protocol. As to conditions: Setaria faberi, post-emergence, 312 h. Here is the method:
as §1, §2

The test system of experiment [3] is ivy-leaved morning glory (Ipomoea hederacea). Kind of experiment: Test G Post-Emergence Protocol. As to conditions: Ipomoea, post-emergence, 312 h. Here is the method:
as §1, §2

The subject of a further experiment is corn (Zea mays). Kind of experiment: Test G Post-Emergence Protocol. As to conditions: Zea mays, post-emergence, 312 h. The protocol: as §1, §2
In experiment [4] the test system is barnyardgrass (Echinochloa crus-galli). Kind of experiment: Test G Post-Emergence Protocol. As to conditions: Echinochloa crus-galli, post-emergence, 312 h. Here is the method:
as §1, §2

For experiment [5], the system named is velvetleaf (Abutilon theophrasti). The experiment can be described thus: Test G Post-Emergence Protocol. As to conditions: Abutilon theophrasti, post-emergence, 312 h. The protocol:
as §1, §2

The subject of experiment [6] is giant foxtail (Setaria faberii). The experiment can be described thus: Test A preemergence. As to conditions: Setaria faberi, pre-emergence, 240 h, 0 to 100 scale (0 no effect, 100 complete control), read-out: Plant response rating, Foxtail, Giant; for pest or weed control at 500 g/ha: 500 g ai/ha, preemergence; for pest or weed control at 125 g/ha: Preemergence, 125 g ai/ha. The gist of the method:
(§3)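 In a loam soil and sand blend, planted seeds got a preemergence directed soil spray, and young plants at the one- to two-leaf stage, 2–10 cm high, got a postemergence application; ~10 d greenhouse hold; injury rated visually, 0 = none, 100 = complete control.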

In the next experiment the test system is Kochia (Kochia scoparia). Kind of experiment: Test A preemergence. As to conditions: Bassia scoparia, pre-emergence, 240 h, 0 to 100 scale (0 no effect, 100 complete control), read-out: Plant response rating, Kochia; for pest or weed control at 500 g/ha: 500 g ai/ha, preemergence; for pest or weed control at 125 g/ha: Preemergence, 125 g ai/ha. The gist of the method: as §3

The test system of experiment [7] is pigweed (Amaranthus retroflexus). Kind of experiment: Test A preemergence. The conditions noted are these: Amaranthus retroflexus, pre-emergence, 240 h, 0 to 100 scale (0 no effect, 100 complete control), read-out: Plant response rating, Pigweed; for pest or weed control at 500 g/ha: 500 g ai/ha, preemergence; for pest or weed control at 125 g/ha: Preemergence, 125 g ai/ha.

In experiment [8] the test system is ragweed (common ragweed, Ambrosia elatior). The experiment can be described thus: Test A preemergence. As to conditions: Ambrosia artemisiifolia, pre-emergence, 240 h, 0 to 100 scale (0 no effect, 100 complete control), read-out: Plant response rating, Ragweed; for pest or weed control at 500 g/ha: 500 g ai/ha, preemergence; for pest or weed control at 125 g/ha: Preemergence, 125 g ai/ha. The gist of the method: as §3

Experiment [9] deals with barnyardgrass (Echinochloa crus-galli). Kind of experiment: Test A preemergence. As to conditions: Echinochloa crus-galli, pre-emergence, 240 h, 0 to 100 scale (0 no effect, 100 complete control), read-out: Plant response rating, Barnyardgrass; for pest or weed control at 500 g/ha: 500 g ai/ha, preemergence; for pest or weed control at 125 g/ha: Preemergence, 125 g ai/ha. A digest of the protocol:
as §3

We go through seven compounds from US12077503B2, “Substituted cyclic amides and their use as herbicides” (FMC CORPORATION, priority 2015, dated 2024).

Take `CN1C[C@@H](c2ccc(C(F)(F)F)cc2)[C@H](C(=O)Nc2cnccc2C(F)(F)F)C1=O` (racemic) [Compound 1401]: the pest or weed control at 15.625 g/ha came to 0% in experiment [1] (15.625 g ai/ha, evaluated after 13 days (100=total damage to plant; 0=no damage to plant), read-out: Pigweed, Redroot damage rating); 0% in [2] (15.625 g ai/ha, evaluated after 13 days (100=total damage to plant; 0=no damage to plant), read-out: Foxtail, Giant damage rating); 0% in experiment [3] (15.625 g ai/ha, evaluated after 13 days (100=total damage to plant; 0=no damage to plant), read-out: Morningglory, Ivy-leaved damage rating); 0% in [4] (15.625 g ai/ha, evaluated after 13 days (100=total damage to plant; 0=no damage to plant), read-out: Barnyardgrass damage rating); 0% in [5] (15.625 g ai/ha, evaluated after 13 days (100=total damage to plant; 0=no damage to plant), read-out: Velvetleaf damage rating). For the same compound, the pest or weed control at 62.5 g/ha in [1] (62.5 g ai/ha, evaluated after 13 days, read-out: Pigweed, Redroot damage rating (100=total damage to plant; 0=no damage to plant)) was found to be 0%; in experiment [2] (62.5 g ai/ha, evaluated after 13 days, read-out: Foxtail, Giant damage rating (100=total damage to plant; 0=no damage to plant)), 60%; in [3] (62.5 g ai/ha, evaluated after 13 days, read-out: Morningglory, Ivy-leaved damage rating (100=total damage to plant; 0=no damage to plant)) it was 0%; in [4] (62.5 g ai/ha, evaluated after 13 days, read-out: Barnyardgrass damage rating (100=total damage to plant; 0=no damage to plant)), 20%; in experiment [5] (62.5 g ai/ha, evaluated after 13 days, read-out: Velvetleaf damage rating (100=total damage to plant; 0=no damage to plant)), 20%. The pest or weed control at 250 g/ha in [1] (250 g ai/ha, evaluated after 13 days, read-out: damage to plant, Pigweed, Redroot (100=total damage to plant; 0=no damage to plant)) is 30%; in experiment [2] (250 g ai/ha, evaluated after 13 days, read-out: damage to plant, Foxtail, Giant (100=total damage to plant; 0=no damage to plant)), 70%; in experiment [3] (250 g ai/ha, evaluated after 13 days, read-out: damage to plant, Morningglory, Ivy-leaved (100=total damage to plant; 0=no damage to plant)), 30%; in experiment [4] (250 g ai/ha, evaluated after 13 days, read-out: damage to plant, Barnyardgrass (100=total damage to plant; 0=no damage to plant)), 50%; in experiment [5] (250 g ai/ha, evaluated after 13 days, read-out: damage to plant, Velvetleaf (100=total damage to plant; 0=no damage to plant)) it was 30%. Further, the plant injury at 15.625 g/ha with corn (Zea mays) (15.625 g ai/ha, evaluated after 13 days (100=total damage to plant; 0=no damage to plant), read-out: Corn damage rating) amounted to 0%. In the experiment on corn (Zea mays) (62.5 g ai/ha, evaluated after 13 days, read-out: Corn damage rating (100=total damage to plant; 0=no damage to plant)), the plant injury at 62.5 g/ha turned out to be 0%. The plant injury at 250 g/ha in the experiment on corn (Zea mays) (250 g ai/ha, evaluated after 13 days, read-out: damage to plant, Corn (100=total damage to plant; 0=no damage to plant)) is 50%.

As for `O=C1NC[C@H](c2cncs2)[C@H]1C(=O)Nc1ccccc1F` [Compound 1335], the pest or weed control at 500 g/ha (in experiment [6]; in the experiment on Kochia (Kochia scoparia); in [7]; in experiment [8]; in experiment [9]) was 0% throughout. Moreover, the pest or weed control at 125 g/ha (in experiment [6]; in the experiment on Kochia (Kochia scoparia); in experiment [7]; in [8]; in [9]) was 0% throughout.

Regarding `CN1C[C@H](c2ccc(C(F)(F)F)nc2)[C@@H](C(=O)Nc2ccc(F)c(F)c2F)C1=O` [Compound 1373], the pest or weed control at 500 g/ha (in experiment [6]; in the experiment with Kochia (Kochia scoparia); in experiment [7]; in experiment [8]; in experiment [9]) was 100% each time. Further, the pest or weed control at 125 g/ha in experiment [6] came to 100%; with Kochia (Kochia scoparia), 100%; in [7], 90%; in experiment [8], 100%; in experiment [9], 90%.

Turning to `N#Cc1cc([C@H]2CNC(=O)[C@]2(O)C(=O)Nc2cccc(F)c2F)ccc1F` [Compound 1374], the pest or weed control at 500 g/ha (in experiment [6]; with Kochia (Kochia scoparia); in experiment [7]; in [8]; in experiment [9]) was 0% throughout. The pest or weed control at 125 g/ha (in [6]; with Kochia (Kochia scoparia); in experiment [7]; in experiment [8]; in experiment [9]) was 0% each time.

As for `CN1C[C@H](c2ccc(C(F)(F)F)cc2)[C@@H](C(=O)Nc2ccccc2C#N)C1=O` [Compound 1379], the pest or weed control at 500 g/ha is 100% in experiment [6]; 90% in the experiment with Kochia (Kochia scoparia); 90% in [7]; 90% in experiment [8]; 100% in [9]. The pest or weed control at 125 g/ha is 100% in [6]; 90% in the experiment with Kochia (Kochia scoparia); 80% in experiment [7]; 70% in experiment [8]; 100% in experiment [9].

With `CN1C[C@H](c2ccc(C(F)(F)F)cc2)[C@@H](C(=O)Nc2cccc(C#N)c2F)C1=O` [Compound 1381], the pest or weed control at 500 g/ha in [6] was 100%; with Kochia (Kochia scoparia) it was 80%; in experiment [7], 100%; in [8] it was 80%; in experiment [9], 100%. The pest or weed control at 125 g/ha in [6] amounted to 100%; in the experiment on Kochia (Kochia scoparia), 80%; in [7] it was 90%; in [8], 70%; in [9], 90%.

Consider `CN1CC[C@H](c2cccc(C(F)(F)F)c2)[C@@H](C(=O)Nc2ccc(F)c(F)c2F)C1=O` [Compound 1395], for which the pest or weed control at 500 g/ha in experiment [6] was found to be 90%; with Kochia (Kochia scoparia), 0%; in experiment [7], 0%; in [8], 0%; in experiment [9] it was 90%. Further, the pest or weed control at 125 g/ha in experiment [6] came to 90%; in the experiment with Kochia (Kochia scoparia), 0%; in experiment [7], 0%; in [8], 0%; in [9], 90%.
